Measurements published in BindingDB's records for doi:10.1021/jm0301078 (Merck Frosst Centre For Therapeutic Research, 2003).

Assays:
Assay in all cases: Enzyme Inhibition Assay
[1] = target: Cathepsin S (Homo sapiens, UniProt P25774)
Experimental: (§1) Prior to the addition of substrate, different concentrations of the inhibitor ranging from 100 uM to 0.2 nM were preincubated for 15 min with enzyme to allow the establishment of the enzyme-inhibitor complex. The proteolytic cleavage of N-acyl aminocoumarins by cathepsins was conducted in 96-well plate format and the plate read using a Spectramax (Molecular Devices) plate reader. […] The percent inhibition of the reaction was calculated from a control reaction containing only vehicle. IC50 curves were generated by fitting percent inhibition values to a four parameter logistic model (SOFTMAX PRO, Molecular Devices).

[2] = target: T1, Cathepsin K (Homo sapiens, UniProt P43235); conditions: pH 5.5; 22 °C
T1 sequence (P43235 whole entry): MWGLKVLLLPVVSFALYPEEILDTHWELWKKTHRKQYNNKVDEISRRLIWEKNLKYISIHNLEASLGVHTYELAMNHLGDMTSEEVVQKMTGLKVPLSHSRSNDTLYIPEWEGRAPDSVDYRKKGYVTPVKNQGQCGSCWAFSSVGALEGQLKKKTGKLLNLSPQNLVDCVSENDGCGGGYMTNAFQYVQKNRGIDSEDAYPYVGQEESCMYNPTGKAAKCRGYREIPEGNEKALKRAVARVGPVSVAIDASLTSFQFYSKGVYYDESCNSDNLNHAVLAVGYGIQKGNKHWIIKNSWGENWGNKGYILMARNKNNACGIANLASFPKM
Experimental: as §1

[3] = target: Procathepsin L (Homo sapiens, UniProt P07711)
Sequence of Procathepsin L (P07711 whole entry): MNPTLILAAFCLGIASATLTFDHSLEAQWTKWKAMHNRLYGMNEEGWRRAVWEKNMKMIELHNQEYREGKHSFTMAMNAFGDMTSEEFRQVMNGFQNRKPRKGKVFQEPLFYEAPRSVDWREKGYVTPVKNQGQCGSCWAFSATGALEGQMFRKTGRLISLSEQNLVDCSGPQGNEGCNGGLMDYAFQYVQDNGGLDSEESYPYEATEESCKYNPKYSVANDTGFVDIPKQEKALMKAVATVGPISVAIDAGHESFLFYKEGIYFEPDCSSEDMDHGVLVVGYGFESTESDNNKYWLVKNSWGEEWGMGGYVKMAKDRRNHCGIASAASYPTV
Experimental: as §1

Sequence of Cathepsin S (P25774 whole entry): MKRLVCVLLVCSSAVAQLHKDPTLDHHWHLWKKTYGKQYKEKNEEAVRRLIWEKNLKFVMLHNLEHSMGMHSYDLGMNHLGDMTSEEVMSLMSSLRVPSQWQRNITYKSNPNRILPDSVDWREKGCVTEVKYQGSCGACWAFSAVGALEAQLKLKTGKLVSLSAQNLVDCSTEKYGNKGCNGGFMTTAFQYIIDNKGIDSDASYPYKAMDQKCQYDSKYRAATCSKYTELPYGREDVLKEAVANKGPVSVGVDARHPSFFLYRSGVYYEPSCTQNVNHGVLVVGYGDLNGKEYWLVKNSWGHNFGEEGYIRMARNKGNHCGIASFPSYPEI

SMILES | IC50 [1] | IC50 [2] | IC50 [3]
CC(C)CC(C(=O)NCC#N)c1cccc(-c2ccccc2N2CCNCC2)c1 (centres undefined) [N-(cyanomethyl)-4-methyl-2-{3-[2-(piperazin-1-yl)phenyl]phenyl}pentanamide] | 0.521 µM | 58 nM | 0.338 µM
CC(C)CC(C(=O)NCC#N)c1cccc(-c2cccnc2)c1 (centres undefined) [N-(cyanomethyl)-4-methyl-2-[3-(pyridin-3-yl)phenyl]pentanamide] | > 10 µM | 488 nM | 5.58 µM
CC(C)CC(C(=O)NCC#N)c1cccc(-c2ccccc2N2CCOCC2)c1 (centres undefined) [N-(cyanomethyl)-4-methyl-2-{3-[2-(morpholin-4-yl)phenyl]phenyl}pentanamide] | 3.37 µM | 614 nM | 0.919 µM
CC(C)CC(C(=O)NCC#N)c1cccc(-c2cccc(N3CCOCC3)c2)c1 (centres undefined) [N-(cyanomethyl)-4-methyl-2-{3-[3-(morpholin-4-yl)phenyl]phenyl}pentanamide] | > 10 µM | 630 nM | > 10 µM
CC(C)CC(C(=O)NCC#N)c1cccc(-c2ccccn2)c1 (centres undefined) [N-(cyanomethyl)-4-methyl-2-[3-(pyridin-2-yl)phenyl]pentanamide] | 8.04 µM | 803 nM | 5.95 µM
CC(C)C[C@@H](C(=O)NCC#N)c1cccc(-c2ccc(-c3nnn[nH]3)cc2)c1 [(2R)-N-(cyanomethyl)-4-methyl-2-{3-[4-(1H-1,2,3,4-tetrazol-5-yl)phenyl]phenyl}pentanamide] | > 10 µM | 2580 nM | > 10 µM
CC(C)CC(C(=O)NCC#N)c1cccc(-c2ccncc2)c1 (centres undefined) [N-(cyanomethyl)-4-methyl-2-[3-(pyridin-4-yl)phenyl]pentanamide] | 1.75 µM | 150 nM | 5.78 µM
CC(C)CC(C(=O)NCC#N)c1cccc(-c2cccc(N3CCNCC3)c2)c1 (centres undefined) [N-(cyanomethyl)-4-methyl-2-{3-[3-(piperazin-1-yl)phenyl]phenyl}pentanamide] | > 10 µM | 216 nM | > 10 µM
